In patent publication US20150250167A1, “COMPOSITION FOR NOXIOUS ORGANISMS-CONTROLLING AGENT AND METHOD FOR USING THE SAME” (priority 2001, published 2015):

Key:
[1] = system: Southern Root-Knot Nematode (Meloidogyne incognita); assay: Test for the effect on southern root-knot nematode, soil blending with granular preparation; type: in vivo; conditions: 300 g ai/10a, single agent, 60 days after treatment
Text: Test for the Effect on Southern Root-Knot Nematode (Meloidogyne incognita)
Two killograms of a soil polluted with southern root-knot nematode was blended with a predetermined dose of a granular preparation. The mixture was filled into a 1/5,000 are Wagner pot. After sowing melon seeds and carrying out the treatment of the present invention, the pot was left to stand in a greenhouse. Sixty days after the treatment, 25 g of the soil was sampled out, the nematode was separated therefrom according to the method of Berman, and the numbers of nematodes were counted after 48 hours.
In the tables, “ai” means active ingredient.

Rice Blast = conditions: in vivo
[2] = system: Citrus Yellow Thrips (Frankliniella occidentalis); assay: Control of citrus yellow thrips on egg plant by combined use with natural enemy pesticide, number of thrips; type: in vivo; conditions: 100 ppm, spray
[3] = system: Smaller Tea Tortrix (Adoxophyes orana fosciota); assay: Insecticidal test on smaller tea tortrix, tea leaf dipping; type: in vivo; conditions: single agent 0.3 ppm, 4th instar larvae, 25° C.
Experimental: Insecticidal Test on Smaller Tea Tortrix (Adoxophyes orana fosciota)
Tea leaves were dipped in a solution of a chemical diluted to a prescribed concentration for 30 seconds. […] Four days and seven days after the treatment, the number of alive insects were counted, from which percentage of death was calculated.

[4] = system: Resistant Strain of Two-Spotted Spider Mite; conditions: 100 ppm, single agent, 2 days after spraying
Cutworm = assay: Test for the effect against cutworm on beet, drench, number of injured hills per 100 hills; type: in vivo; conditions: 15 g ai/10a
Experimental: Test for the Effect Against Cutworm on Beet
Beet seedlings (variety: Monoace S) planted in a paper pot was treated with 3 L/m^2 of a solution of an agent diluted to a predetermined concentration, by the method of drench. Just after the drench, the plant was set. Predetermined days after the setting, the number of injured hills per 100 hills was counted.

Aphid = assay: Control of aphid on cabbage by soil treatment, number of parasitic insects; type: in vivo; conditions: 5 mg ai/hill, 21 days after transplanting
Experimental: (§1) Test for the Control of Diamondback Moth (Plutella xyloxtella) and Aphid on Cabbage by Soil Treatment
A granular preparation was mixed into bed soil, and the mixture was filled into a cell seedling box and sown with seeds of cabbage (variety: YR Seitoku). Otherwise, cell seedling planted cabbage was treated with the granular agent either by a treatment in the foliage leaf extraction period, or by a pre-transplanting treatment, or by a pricking-in hole treatment, or by a plant foot treatment after the planting. […]

[5] = system: Rice Leafroller (Cnaphalocrosis medinalis); assay: Control of rice leafroller on paddyfield rice by nursery box application, number of injured leaves; type: in vivo; conditions: 0.5 g ai/Box, single agent
Experimental: (§2) Test for the Control of Small Brown Planthopper (Laodelphax striatellus) and Rice Leafroller (Cnaphalocrosis medinalis) on Paddyfield Rice Plant by Nursery Box Application
(§3) Fifty grams of a granular preparation was applied to rice plant (variety: Nihombare) cultured in a nursery box, after which the rice plant was transplanted to the main paddy field (in the middle of May). The controlling effect against small brown planthopper was evaluated by investigating the number of parasitic insects on 30 hills per each plot, 40 days and 60 days after the transplantation. The controlling effect against rice leafroller was evaluated by investigating the number of injured leaves on 100 hills per each plot, 50 days after the transplantation.

[6] = system: Rice Water Weevil (Lissorhoptrus oryzophilus); assay: Control of rice water weevil on paddyfield rice by nursery box application, extent of injury; type: in vivo; conditions: 0.5 g ai/Box, single agent
[7] = system: Green Peach Aphid (Myzus persicae); assay: Insecticidal test on green peach aphid, spraying of Chinese cabbage, control value; type: in vivo; conditions: 100 ppm, single agent, 6 days after spraying
[8] = system: Small Brown Planthopper (Laodelphax striatellus); assay: Control of small brown planthopper on paddyfield rice by nursery box application, number of parasitic insects; type: in vivo; conditions: 0.5 g ai/Box, single agent
Experimental: as §2, §3

[9] = system: Brown Rice Planthopper (Nilaparvata lugens); assay: Insecticidal test on brown rice planthopper, rice seedling dipping; type: in vivo; conditions: 100 ppm, single agent; for Death rate (%) After 1 days: after 1 day
Text: Insecticidal Test on Brown Rice Planthopper (Nilaparvata lugens)
Rice seedlings (variety: Nihombare) were dipped in a solution of an agent diluted to a predetermined concentration for 30 seconds. After air-dryness, each seedling was introduced into a glass-made test tube having a diameter of 1.8 cm and a height of 20 cm, and inoculated with ten 3rd inster nimphs of brown rice planthopper. Then, the test tube was stoppered with cotton. One day after and four days after the treatment, the number of alive insects was counted, based on which the insect death rate was calculated.

[10] = system: Diamondback Moth (Plutella xyloxtella); assay: Control of diamondback moth on cabbage by soil treatment, number of parasitic insects; type: in vivo; conditions: 5 mg ai/hill, 21 days after transplanting
Experimental: as §1
A granular preparation was mixed into bed soil, and the mixture was filled into a cell seedling box and sown with seeds of cabbage (variety: YR Seitoku). Otherwise, cell seedling planted cabbage was treated with the granular agent either by a treatment in the foliage leaf extraction period, or by a pre-transplanting treatment, or by a pricking-in hole treatment, or by a plant foot treatment after the planting. Twenty one days after the transplanting (in the middle of June), the number of parasitic insects was counted on 30 hills in the case of diamondback moth and on 10 hills in the case of aphid.

[11] = true leaf extraction season treatment

Structure (SMILES)	Number of nematodes per 25 g of soil sample [1]	Areal rate of disease spot (%) After 60 days (Rice Blast)	Number of parasitic insects per 20 leaves, After 60 days [2]	Number of parasitic insects per 20 leaves, After 90 days [2]	Number of parasitic insects per 20 leaves, After 120 days [2]	Death rate (%) After 4 days [3]	Death rate (%) After 7 days [3]	Death rate (%) [4]	Number of injured hills per 100 hills, After 60 days (Cutworm)	Number of injured hills per 100 hills, After 90 days (Cutworm)	Number of injured hills per 100 hills, After 120 days (Cutworm)	Number of parasitic insects per 30 hills, Aphid (Aphid; plant foot treatment)	Number of parasitic insects per 30 hills, Aphid (Aphid; pre-transplanting treatment)	Number of parasitic insects per 30 hills, Aphid (Aphid; pricking-in hole treatment)	Number of parasitic insects per 30 hills, Aphid (Aphid; soil incorporation)	Number of parasitic insects per 30 hills, Aphid (Aphid; [11])	Percentage of injured leaves (%) After 50 days [5]	Extent of injury After 21 days [6]	Control degree (%) [7]	Number of parasitic planthoppers per 30 hills After 40 days [8]	also measured
Cc1cc(C(F)(F)C(F)(F)F)ccc1NC(=O)c1cccc(I)c1C(=O)NC(C)C [Compound 41]	31	8.5%	18	29	59	0%	30%	0%	0	7	21	456	458	511	457	495	0.35%	43.2	0%	333	Number of parasitic planthoppers per 30 hills After 60 days [8]: 385; Death rate (%) After 1 days [9]: 0%; Death rate (%) After 5 days [9]: 0%; Number of parasitic insects per 30 hills, Diamondback moth ([10]; plant foot treatment): 2; Number of parasitic insects per 30 hills, Diamondback moth ([10]; pre-transplanting treatment): 1; Number of parasitic insects per 30 hills, Diamondback moth ([10]; pricking-in hole treatment): 2; Number of parasitic insects per 30 hills, Diamondback moth ([10]; soil incorporation): 3; Number of parasitic insects per 30 hills, Diamondback moth [10, 11]: 2
Cc1cc(OC(F)(F)F)ccc1NC(=O)c1cccc(I)c1C(=O)NC(C)C [Compound 44]	29	9.1%	25	33	53	0%	20%	0%	0	7	20	492	498	478	449	502	0.24%	45.9	0%	323	Number of parasitic planthoppers per 30 hills After 60 days [8]: 358; Death rate (%) After 1 days [9]: 0%; Death rate (%) After 5 days [9]: 0%; Number of parasitic insects per 30 hills, Diamondback moth ([10]; plant foot treatment): 2; Number of parasitic insects per 30 hills, Diamondback moth ([10]; pre-transplanting treatment): 3; Number of parasitic insects per 30 hills, Diamondback moth ([10]; pricking-in hole treatment): 3; Number of parasitic insects per 30 hills, Diamondback moth ([10]; soil incorporation): 3; Number of parasitic insects per 30 hills, Diamondback moth [10, 11]: 2
Cc1cc(OC(F)(F)F)ccc1NC(=O)c1cccc(Cl)c1C(=O)NC(C)C [Compound 20]	28	8.1%	21	28	49	0%	25%	0%	0	7	20	501	478	499	512	498	0.15%	37.4	0%	315	Number of parasitic planthoppers per 30 hills After 60 days [8]: 354; Death rate (%) After 1 days [9]: 0%; Death rate (%) After 5 days [9]: 0%; Number of parasitic insects per 30 hills, Diamondback moth ([10]; plant foot treatment): 5; Number of parasitic insects per 30 hills, Diamondback moth ([10]; pre-transplanting treatment): 6; Number of parasitic insects per 30 hills, Diamondback moth ([10]; pricking-in hole treatment): 3; Number of parasitic insects per 30 hills, Diamondback moth ([10]; soil incorporation): 4; Number of parasitic insects per 30 hills, Diamondback moth [10, 11]: 2
